In US12281098B2, “Five-membered-fused six-membered compound, preparation method, pharmaceutical composition and use” (HANGZHOU POLYMED BIOPHARMACEUTICALS, INC., priority 2021, dated 2025):
pIC50: −log10 of the molar value. Read-outs that look alike come from different tables or passages of the source.

Experiments:
IRAK4 kinase = biological target: T1, IRAK4 kinase (Homo sapiens, UniProt Q9NWZ3); assay: Compound inhibition of IRAK4 kinase activity (fluorescence microfluidic mobility shift assay); type: biochemical; conditions: 10 μM ATP, 6 nM IRAK4 kinase
T1 construct: purchased Carna 09-145
T1 sequence (Q9NWZ3 1-460): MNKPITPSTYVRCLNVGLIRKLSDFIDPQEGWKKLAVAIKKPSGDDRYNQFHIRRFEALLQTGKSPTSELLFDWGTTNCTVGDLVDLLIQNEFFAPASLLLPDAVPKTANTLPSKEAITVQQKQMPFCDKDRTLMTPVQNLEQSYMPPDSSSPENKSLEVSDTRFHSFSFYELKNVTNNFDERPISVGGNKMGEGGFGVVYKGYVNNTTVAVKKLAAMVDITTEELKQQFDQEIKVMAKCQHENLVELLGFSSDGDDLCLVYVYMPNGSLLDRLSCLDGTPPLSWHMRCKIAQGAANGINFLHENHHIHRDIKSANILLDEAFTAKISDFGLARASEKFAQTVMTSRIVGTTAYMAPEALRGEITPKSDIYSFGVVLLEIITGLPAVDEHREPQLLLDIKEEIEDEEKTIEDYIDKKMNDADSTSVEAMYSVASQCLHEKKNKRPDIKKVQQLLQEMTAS
Method: Based on the experimental method of fluorescence microfluidic mobility shift assay, the IC50 value of the compound for competitive binding of ATP to IRAK4 kinase was determined. The initial detection concentration of the compound was 10 μM, which was 4-fold serially diluted to 0.38 nM and assayed in duplicate. In this case, commercially available staurosporine was the standard control for the assay.
1) IRAK4 kinase was dissolved in kinase buffer (50 mM HEPES pH 7.5, 10 mM MgCl2, 2 mM DDT, and 0.01% Brij-35) at a final concentration of 6 nM.
2) The substrate peptide FAM-P8 and ATP were dissolved in the above kinase buffer, and the final concentrations of the substrate peptide FAM-P8 and ATP for IRAK4 were 3 μM and 10 μM, respectively.
3) Compound dilution: The compound was first diluted to 50 μM, and then 4-fold serially diluted with DMSO. In this case, the solution without compound and kinase served as the blank control, corresponding to the “minimum value” shown below; the solution without compound but containing kinase, adenosine 5′-triphosphate disodium salt hydrate, DMSO, and the buffer served as the positive control, corresponding to the “maximum value” shown below.
4) Kinase reaction and termination: 10 μL of the kinase buffer was added to a 384-well plate containing 5 μL of the compound to be tested, and the mixture was incubated at room temperature for 10 minutes; another 10 μL of buffer containing the substrate peptide and adenosine 5′-triphosphate disodium salt hydrate was added to the 384-well plate, and after incubation at 28° C. for 1 hour, 25 μL of termination solution (100 mM HEPES pH 7.5, 50 mM EDTA, 0.2% Coating Reagent #3, and 0.015% Brij-35) was added to each well to terminate the reaction.
5) Data reading: CaliperEZ Reader II instrument was used to read the conversion rate data. Setting conditions: downstream voltage as −500 V, upstream voltage as −2250 V, base pressure as −0.5 PSI, and screening pressure as −1.2 PSI.
6) Data calculation: the conversion rate data was copied from CaliperEZ Reader II, and the conversion rate was converted into inhibition rate data. The calculation formula is as follows: Inhibition percentage (%)=(maximum value−conversion rate)/(maximum value−minimum value)*100%
IC50 values were fitted with XLFit excel add-in version 5.4.0.8.

THP-1 cells = assay: LPS-stimulated cytokine (TNFα) release in THP-1; type: cell-based, Human; conditions: LPS 100 ng/mL, 5 hours, TNF-α ELISA, read-out: Inhibition IC50 (nM) of cytokines (TNFα) against LPS-stimulated inflammatory responses in THP-1 cells
Method: THP-1 cells were cultured in suspension in RPMI 1640 complete medium (containing 10% serum, 1% penicillin-streptomycin, and 55 μM β-mercaptoethanol). THP-1 cells were collected, centrifuged at 350×g at room temperature to discard the supernatant, and resuspended in RPMI 1640 complete medium to a concentration of 2×10^6 cells per mL. THP-1 cells were spread into a 96-well plate at a concentration of 2×10^5 cells per well, and different concentrations of the compound to be tested were added thereto. The plate was incubated in a 37° C. cell culture incubator with 5% CO2 for 60 minutes. 50 μL of LPS at a final concentration of 100 ng/mL was added to a 96-well plate, and incubated in a 37° C. cell culture incubator for 5 hours. The cell culture plate was then taken out from the incubator, and centrifuged at 350×g at low temperature for 5 minutes to collect 150 μL of the supernatant. Referring to the instructions in the Human TNF-α Duoset ELISA Kit, the level of TNF-α in the cell culture supernatant was detected.
Data on the inhibitory activity of cytokines (TNFα) against LPS-stimulated inflammatory responses in THP-1 cells are shown in Tables 3 and 4.

[1] = biological target: T2, IRAK4 protein in THP-1 cells (Homo sapiens, UniProt Q9NWZ3); assay: IRAK4 protein degradation in THP-1 induced by PROTAC (Western Blot); type: cell-based; conditions: Table 6, estimated bins, GAPDH internal reference
T2 construct: endogenous in cells; host or cells: THP-1
T2 sequence (Q9NWZ3 1-460): T1 sequence (Q9NWZ3 1-460)
Method: 3.1. Based on the experimental method of immunoblot, i.e., Western Blot, THP-1 cell samples processed by gel electrophoresis were stained with specific antibodies, and the degradation activity of the compounds on the IRAK4 protein in THP-1 cells was determined by analyzing the position of the staining and the depth of the staining. The detection concentrations of the compounds were 0 μM, 0.3 μM, 1 μM, and 3 μM, and the compounds were used to treat the cells for 8 hours, 16 hours, 24 hours, and 48 hours. In this case, glyceraldehyde-3-phosphate dehydrogenase (GAPDH) was the internal reference protein for the assay.
THP-1 cells were spread into a 6-well plate at a density of 1.5×10^6 cells per mL, and incubated in a 37° C. cell culture incubator with 5% CO2 for 2 hours. The compound was diluted with DMSO to 0.6 mM, 0.2 mM, and 0.06 mM, respectively. 10 μL of compound solution was added to the corresponding wells, and the plate was incubated in the incubator for 16 hours, 24 hours, and 48 hours, respectively. The drug-treated THP-1 cells were collected from the wells, added with 120 μL of RIPA lysis buffer containing protease inhibitor, phosphatase inhibitor cocktail 2, and phosphatase inhibitor cocktail 3, and lysed on wet ice for 30 minutes. The cell lysate was then centrifuged at low temperature and high speed for 5 minutes, and the supernatant was collected. Referring to the instructions in the Pierce™ BCA Protein Assay Kit, the cell samples were tested for protein concentration.
The samples were adjusted to the same concentration using lysis buffer and NuPAGE® LDS sample buffer containing 1 M DTT. The samples were heated at 95° C. for 5 minutes and centrifuged at low temperature and high speed. 20 μL of prepared protein sample and 4 μL of PageRuler Prestained Protein Ladder were added to the gel wells. The mixture was electrophoresed at a voltage of 80 V for 0.5 hours, and then electrophoresed for another 1.5 hours after the voltage was adjusted to 120 V. The gel was removed and proteins in the gel were transferred to IBlot™ 2 Transfer Stack at a voltage of 20V. After successful membrane transfer, the bands were cut out at 65 kDa to 40 kDa and 40 kDa to 30 kDa, respectively. The membrane was blocked with 5% non-fat milk at room temperature for 1 hour. The membrane was washed three times with 1×TBST, and incubated with IRAK4 antibody working solution at 4° C. overnight. The IRAK4 antibody working solution was discarded, and the membrane was washed three times with 1×TBST. After the corresponding membrane was incubated with Goat Anti-Rabbit IgG H&L (HRP) working solution and Goat Anti-Mouse IgG H&L (HRP) working solution at room temperature for 1 hour, the antibody working solutions were discarded, and the membrane was washed three times with 1×TBST. Referring to the instructions in the SuperSignal™ West Femto Maximum Sensitivity Substrate Kit, the reagents in the kit were mixed in equal volume proportions to prepare a luminescent mixture, and the membrane was incubated for 1 minute and removed for exposure.
WB assay: The results 24 hours after administration at 1 μM were divided into estimated <25%, <50%, <75%, and <100%.

Row | pIC50 (IRAK4 kinase; Table 1) | pIC50 (IRAK4 kinase; Table 2) | IC50 (THP-1 cells; Homo sapiens, THP-1, Table 3) [nM] | IC50 (THP-1 cells; Table 4) [nM] | IC50 (THP-1 cells; Homo sapiens, THP-1, Table 4) [nM] | Western Blot results 24 hours after administration at a drug concentration of 1 μM [1] [%] | Structure (SMILES)
1 | 6.00 to 7.00 | 6.00 to 7.00 | ≥ 10000 | ≥ 10000 |  |  | CC(C)(O)c1cc2nn(CCN3CCN(CC(=O)NCCOCCOCCNc4cccc5c4C(=O)N(C4CCC(=O)NC4=O)C5=O)C3=O)cc2cc1NC(=O)c1cccc(C(F)(F)F)n1 (stereo not shown) [III-2]
2 | 6.00 to 7.00 | 6.00 to 7.00 | 1000 to 10000 | 1000 to 10000 |  |  | CC(C)(O)c1cc2nn(CCN3CCN(CC(=O)NCCCCNc4cccc5c4C(=O)N(C4CCC(=O)NC4=O)C5=O)C3=O)cc2cc1NC(=O)c1cccc(C(F)(F)F)n1 (stereo not shown) [III-10]
3 | 6.00 to 7.00 | 6.00 to 7.00 |  |  | 1000 to 10000 |  | CC(C)(O)c1cc2nn(CCN3CCN(CC(=O)N4CCC5(CC4)CCN(c4cccc6c4C(=O)N(C4CCC(=O)NC4=O)C6=O)CC5)C3=O)cc2cc1NC(=O)c1cccc(C(F)(F)F)n1 (stereo not shown) [III-11]
4 | 6.00 to 7.00 | 6.00 to 7.00 | 100 to 1000 | 100 to 1000 |  |  | COc1cc2c(cc1NC(=O)c1cccc(C(F)(F)F)n1)CN(CC(=O)N1CCC3(CC1)CCN(c1cccc4c1C(=O)N(C1CCC(=O)NC1=O)C4=O)CC3)C2=O (stereo not shown) [III-24]
5 | 6.00 to 7.00 | 6.00 to 7.00 | 1000 to 10000 | 1000 to 10000 |  |  | COc1cc2c(cc1NC(=O)c1cccc(C(F)(F)F)n1)CN(CCC(C)(C)C(=O)N1CCC3(CC1)CCN(c1cccc4c1C(=O)N(C1CCC(=O)NC1=O)C4=O)CC3)C2=O (stereo not shown) [III-25]
6 | > 7.00 | > 7.00 | 1000 to 10000 | 1000 to 10000 |  |  | COc1cc2c(cc1NC(=O)c1cccc(C(F)(F)F)n1)CN(CCC(C)(C)C(=O)N1CCC3(CCC(C(=O)N[C@H](C(=O)N4C[C@H](O)C[C@H]4C(=O)N[C@@H](C)c4ccc(-c5scnc5C)cc4)C(C)(C)C)CC3)CC1)C2=O [III-26]
7 | > 7.00 | > 7.00 |  |  | 1000 to 10000 |  | COc1cc2nn(CCN3CCN(CC(=O)N4CCC5(CCC(C(=O)N[C@H](C(=O)N6C[C@H](O)C[C@H]6C(=O)N[C@@H](C)c6ccc(-c7scnc7C)cc6)C(C)(C)C)CC5)CC4)CC3)cc2cc1NC(=O)c1cccc(C(F)(F)F)n1 [III-29]
8 |  | > 7.00 |  |  | 1000 to 10000 |  | COc1cc2nn(CCN3CCN(CC(=O)N4CCC5(CC4)CCN(c4ncc(Nc6cccc7c6C(=O)N(C6CCC(=O)NC6=O)C7=O)cn4)CC5)CC3)cc2cc1NC(=O)c1cccc(C(F)(F)F)n1 (stereo not shown) [III-30]
9 | > 7.00 | > 7.00 |  |  | 1000 to 10000 |  | COc1cc2nn(CCN3CCN(CC(=O)N4CC5(CC(CC(=O)N[C@H](C(=O)N6C[C@H](O)C[C@H]6C(=O)N[C@@H](C)c6ccc(-c7scnc7C)cc6)C(C)(C)C)C5)C4)CC3)cc2cc1NC(=O)c1cccc(C(F)(F)F)n1 [III-31]
10 |  | > 7.00 |  |  | 100 to 1000 |  | COc1cc2nn(CCN3CCN(CC(=O)N4CCC5(CCC(N[C@H](C(=O)N6C[C@H](O)C[C@H]6C(=O)N[C@@H](C)c6ccc(-c7scnc7C)cc6)C(C)(C)C)CC5)CC4)C3=O)cc2cc1NC(=O)c1cccc(C(F)(F)F)n1 [III-35]
11 |  | > 7.00 |  |  |  | <25 | COc1cc2nn(CCN3CCN(c4cccc5c4C(=O)N(C4CCC(=O)NC4=O)C5=O)CC3)cc2cc1NC(=O)c1cccc(C(F)(F)F)n1 (stereo not shown) [III-39]
12 |  | > 7.00 |  |  |  | <25 | COc1cc2c(cc1NC(=O)c1cccc(C(F)(F)F)n1)CN(CCC(C)(C)C(=O)NC1CCN(c3cccc4c3C(=O)N(C3CCC(=O)NC3=O)C4=O)CC1)C2=O (stereo not shown) [III-41]
13 |  | > 7.00 |  |  |  |  | COc1cc2nn(CCN3CCC(CC(=O)N4CCC5(CC4)CCN(c4cccc6c4C(=O)N(C4CCC(=O)NC4=O)C6=O)CC5)CC3)cc2cc1NC(=O)c1cccc(C(F)(F)F)n1 (stereo not shown) [III-71]
14 |  | > 7.00 |  |  |  |  | COc1cc2nn(CCN3CCC(CC(=O)N4CC5(C4)CN(c4cccc6c4C(=O)N(C4CCC(=O)NC4=O)C6=O)C5)CC3)cc2cc1NC(=O)c1cccc(C(F)(F)F)n1 (stereo not shown) [III-72]
15 |  | 6.00 to 7.00 |  |  |  |  | O=C1CCC(N2C(=O)c3cccc(N4CCC5(CCN(C(=O)CN6CCN(CCn7cc8cc(NC(=O)c9cccc(C(F)(F)F)n9)c(OC(F)(F)F)cc8n7)CC6)CC5)CC4)c3C2=O)C(=O)N1 (stereo not shown) [III-73]
